The text below walks through data of US12083101B2, “Biaryl derivatives as YAP/TAZ-TEAD protein-protein interaction inhibitors” (Novartis AG, priority 2020, dated 2024).

The structures appear in SMILES notation. pIC50: −log10 of the molar value. Some results are limits rather than exact numbers.

Avi-humanTEAD4 217-434 / Cy5 labeled humanYAP 60-100, sequence (Q15561 217-434): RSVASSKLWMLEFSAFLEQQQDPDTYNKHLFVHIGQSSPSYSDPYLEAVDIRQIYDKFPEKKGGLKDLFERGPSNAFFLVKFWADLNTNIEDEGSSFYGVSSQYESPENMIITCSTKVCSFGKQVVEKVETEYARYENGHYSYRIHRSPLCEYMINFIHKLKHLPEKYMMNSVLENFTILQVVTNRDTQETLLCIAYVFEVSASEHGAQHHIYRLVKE

The target in the assay is Avi-humanTEAD4 217-434 / Cy5 labeled humanYAP 60-100 (Homo sapiens (Human), UniProt Q15561). Nature of the assay: TR-FRET YAP-TEAD4 in-vitro biochemical assay. As to conditions: 1 nM Avi-humanTEAD4 217-434, 20 nM Cy5-humanYAP 60-100, 1 h room temperature. The format is binding. Here is the method:
N-terminus Cy5 labeled humanYAP^60-100 (20 nM) was then added to this preparation. Compounds were dissolved at 10 mM in 100% DMSO and serial dilutions were made in 100% DMSO. The diluted compound solutions were incubated in white 384-well plates (Greiner Bio-One) for 1 h at room temperature with the above described mix. The final DMSO concentration present in the assay was 1%. […] The IC50 values were estimated by fitting the data by nonlinear fit regression (GraphPad Prism).
A general note: In TR-FRET formats the signal depends on donor and acceptor labels being close together.
What is called pIC50 is −log10 of the IC50, conventionally taken in molar units. Low readings indicate a high IC50, high ones a low IC50. In the case of `COc1ccc(C(N)=O)c(-c2c(Cl)ccc3c2[C@H](O)[C@@](CN)(c2ccc[nH]c2=O)O3)c1F` (atropisomer, axis not shown) [Example 92, 2-((2S,3S,4S)-2-(Aminomethyl)-5-chloro-3-hydroxy-2-(2-oxo-1,2-dihydropyridin-3-yl)-2,3-dihydrobenzofuran-4-yl)-3-fluoro-4-methoxybenzamide], the pIC50 is 7.66.

`COc1ccc(C(N)=O)c(-c2c(Cl)ccc3c2[C@H](O)[C@@](CN)(c2ccccc2OC(F)(F)F)O3)c1F` (atropisomer, axis not shown) [Example 93, 2-((2S,3S,4S)-2-(Aminomethyl)-5-chloro-3-hydroxy-2-(2-(trifluoromethoxy)phenyl)-2,3-dihydrobenzofuran-4-yl)-3-fluoro-4-methoxybenzamide] had a negative-log IC50 (pIC50) of 8.05.

For `NC[C@]1(c2ccccc2)Oc2cc(F)c(Cl)c(-c3c(C(N)=O)ccc(OCCO)c3F)c2[C@@H]1O` (atropisomer, axis not shown) [Example 98, 2-((2S,3S,4S)-2-(Aminomethyl)-5-chloro-6-fluoro-3-hydroxy-2-phenyl-2,3-dihydrobenzofuran-4-yl)-3-fluoro-4-(2-hydroxyethoxy)benzamide], the pIC50 was 8.30.

On to `C[C@H]1c2c(cc(F)c(Cl)c2-c2c(C(N)=O)ccc(OC(F)F)c2F)O[C@]1(CN)c1ccccc1` (atropisomer, axis not shown) [Example 105, 2-((2S,3S,4S)-2-(Aminomethyl)-5-chloro-6-fluoro-3-methyl-2-phenyl-2,3-dihydrobenzofuran-4-yl)-4-(difluoromethoxy)-3-fluorobenzamide], for which the pIC50 is 8.70.

The compound `C[C@H]1c2c(cc(F)c(Cl)c2-c2c(C(N)=O)ccc(OCCO)c2F)O[C@]1(CN)c1ccccc1` (atropisomer, axis not shown) [Example 107, 2-((2S,3S,4S)-2-(aminomethyl)-5-chloro-6-fluoro-3-methyl-2-phenyl-2,3-dihydrobenzofuran-4-yl)-3-fluoro-4-(2-hydroxyethoxy)benzamide] gave a pIC50 of 8.70. Then `COCCOc1ncc(C(N)=O)c(-c2c(Cl)c(F)cc3c2[C@H](C)[C@@](CN)(c2ccccc2)O3)c1F` (atropisomer, axis not shown) [Example 108, 4-((2S,3S,4S)-2-(aminomethyl)-5-chloro-6-fluoro-3-methyl-2-phenyl-2,3-dihydrobenzofuran-4-yl)-5-fluoro-6-(2-methoxyethoxy)nicotinamide], with 8.70; and `CNC[C@]1(c2ccccn2)Oc2cc(F)c(Cl)c(-c3c(C(N)=O)ccc(OCCOC)c3F)c2[C@@H]1C` (atropisomer, axis not shown) [Example 111, 2-((2R,3S,4S)-5-chloro-6-fluoro-3-methyl-2-((methylamino)methyl)-2-(pyridin-2-yl)-2,3-dihydrobenzofuran-4-yl)-3-fluoro-4-(2-methoxyethoxy)benzamide], with 8.40. Regarding `CNC[C@]1(c2ccccn2)Oc2cc(F)c(Cl)c(-c3c(C(N)=O)ccc(OCCO)c3F)c2[C@@H]1C` (atropisomer, axis not shown) [Example 112, 2-((2R,3S,4S)-5-chloro-6-fluoro-3-methyl-2-((methylamino)methyl)-2-(pyridin-2-yl)-2,3-dihydrobenzofuran-4-yl)-3-fluoro-4-(2-hydroxyethoxy)benzamide], the negative logarithm of the IC50 (pIC50) was 9.00. Regarding `C[C@H]1c2c(cc(F)c(Cl)c2-c2c(C(N)=O)ccc(OC(F)F)c2F)O[C@]1(CN[C@H]1CC[C@H](O)CC1)c1ccccc1` (atropisomer, axis not shown) [Example 115a, 2-((2S,3S,4S)-5-chloro-6-fluoro-2-((((trans)-4-hydroxycyclohexyl)amino)methyl)-3-methyl-2-phenyl-2,3-dihydrobenzofuran-4-yl)-4-(difluoromethoxy)-3-fluorobenzamide], the pIC50 is 8.70. On to `C[C@H]1c2c(cc(F)c(Cl)c2-c2c(C(N)=O)ccc(OC(F)F)c2F)O[C@]1(CN[C@H]1CC[C@@H](O)CC1)c1ccccc1` (atropisomer, axis not shown) [Example 115b, 2-((2S,3S,4S)-5-chloro-6-fluoro-2-((((cis)-4-hydroxycyclohexyl)amino)methyl)-3-methyl-2-phenyl-2,3-dihydrobenzofuran-4-yl)-4-(difluoromethoxy)-3-fluorobenzamide], for which the pIC50 was 8.70. `COCCOc1ccc(C(N)=O)c(-c2c(Cl)c(F)cc3c2[C@H](C)[C@@](CN[C@H]2CC[C@](C)(O)CC2)(c2ccccc2)O3)c1F` (atropisomer, axis not shown) [Example 116a, 2-((25,35,4S)-5-chioro-6-fluoro-2-((((trans)-4-hydroxy-4-methylcyclohexyl)amino)methyl)-3-methyl-2-phenyl-2,3-dihydrobenzofuran-4-yl)-3-fluoro-4-(2-methoxyethoxy)benzamide] showed a negative logarithm of the IC50 (pIC50) above 9.00. With `COCCOc1ccc(C(N)=O)c(-c2c(Cl)c(F)cc3c2[C@H](C)[C@@](CN[C@H]2CC[C@@](C)(O)CC2)(c2ccccc2)O3)c1F` (atropisomer, axis not shown) [Example 116b, 2-((2S,3S,4S)-5-chloro-6-fluoro-2-((((cis)-4-hydroxy-4-methylcyclohexyl)amino)methyl)-3-methyl-2-phenyl-2,3-dihydrobenzofuran-4-yl)-3-fluoro-4-(2-methoxyethoxy)benzamide], the negative-log IC50 (pIC50) is 9.00.

`NC[C@@]1(c2ccccc2)Cc2c(ncc(Cl)c2-c2c(F)cccc2C(N)=O)O1` (atropisomer, axis not shown) [Example 131, 2-((2S,4S)-2-(Aminomethyl)-5-chloro-2-phenyl-2,3-dihydrofuro[2,3-b]pyridin-4-yl)-3-fluorobenzamide] gave a negative-log IC50 (pIC50) of 5.89. In the case of `COc1ccc(C(N)=O)c(-c2c(Cl)ccc3c2[C@H](O)[C@@](CN[C@H]2CC[C@H](O)CC2)(c2ccccn2)O3)c1F` (relative stereo) [Example 95a, 2-((2R,3S,4S)-5-Chloro-3-hydroxy-2-((((trans)-4-hydroxycyclohexyl)amino)methyl)-2-(pyridin-2-yl)-2,3-dihydrobenzofuran-4-yl)-3-fluoro-4-methoxybenzamide], the negative-log IC50 (pIC50) was 8.10. `COc1ccc(C(N)=O)c(-c2c(Cl)ccc3c2[C@H](O)[C@@](CN[C@H]2CC[C@@H](O)CC2)(c2ccccn2)O3)c1F` (relative stereo) [Example 95b, 2-((2R,3S,4S)-5-chloro-3-hydroxy-2-((((cis)-4-hydroxycyclohexyl)amino)methyl)-2-(pyridin-2-yl)-2,3-dihydrobenzofuran-4-yl)-3-fluoro-4-methoxybenzamide] showed a pIC50 of 8.15. As to `NC(=O)c1ccc(OC(F)F)c(F)c1-c1c(Cl)c(F)cc2c1[C@H](O)[C@@](CN[C@H]1CC[C@H](O)CC1)(c1ccccc1)O2` (relative stereo) [Example 100a, 2-((2S,3S,4S)-5-Chloro-6-fluoro-3-hydroxy-2-((((trans)-4-hydroxycyclohexyl)amino)methyl)-2-phenyl-2,3-dihydrobenzofuran-4-yl)-4-(difluoromethoxy)-3-fluorobenzamide], the negative logarithm of the IC50 (pIC50) is 8.70. `NC(=O)c1ccc(OC(F)F)c(F)c1-c1c(Cl)c(F)cc2c1[C@H](O)[C@@](CN[C@H]1CC[C@@H](O)CC1)(c1ccccc1)O2` (relative stereo) [Example 100b, 2-((2S,3S,4S)-5-chloro-6-fluoro-3-hydroxy-2-((((cis)-4-hydroxycyclohexyl)amino)methyl)-2-phenyl-2,3-dihydrobenzofuran-4-yl)-4-(difluoromethoxy)-3-fluorobenzamide] gave a pIC50 of 8.30. Compound `CO[C@H]1c2c(cc(F)c(Cl)c2-c2c(C(N)=O)ccc(OC(F)F)c2F)O[C@]1(CN[C@H]1CC[C@H](O)CC1)c1ccccc1` (relative stereo) [Example 102a, 2-((2S,3S,4S)-5-Chloro-6-fluoro-2-((((trans)-4-hydroxycyclohexyl)amino)methyl)-3-methoxy-2-phenyl-2,3-dihydrobenzofuran-4-yl)-4-(difluoromethoxy)-3-fluorobenzamide] showed a negative logarithm of the IC50 (pIC50) of 8.52. As for `CO[C@H]1c2c(cc(F)c(Cl)c2-c2c(C(N)=O)ccc(OC(F)F)c2F)O[C@]1(CN[C@H]1CC[C@@H](O)CC1)c1ccccc1` (relative stereo) [Example 102b, 2-((2S,3S,4S)-5-chloro-6-fluoro-2-((((cis)-4-hydroxycyclohexyl)amino)methyl)-3-methoxy-2-phenyl-2,3-dihydrobenzofuran-4-yl)-4-(difluoromethoxy)-3-fluorobenzamide], the figure is 8.40.

`CO[C@H]1CC[C@@H](NC[C@]2(c3ccccc3)Oc3cc(F)c(Cl)c(-c4c(C(N)=O)ccc(OC(F)F)c4F)c3[C@@H]2O)CC1` (relative stereo) [Example 136a, 2-((2S,3S,4S)-5-Chloro-6-fluoro-3-hydroxy-2-((((cis)-4-methoxycyclohexyl)amino)methyl)-2-phenyl-2,3-dihydrobenzofuran-4-yl)-4-(difluoromethoxy)-3-fluorobenzamide] had a pIC50 of 8.15. Then `CO[C@H]1CC[C@H](NC[C@]2(c3ccccc3)Oc3cc(F)c(Cl)c(-c4c(C(N)=O)ccc(OC(F)F)c4F)c3[C@@H]2O)CC1` (relative stereo) [Example 136b, 2-((2S,3S,4S)-5-chloro-6-fluoro-3-hydroxy-2-((((trans)-4-methoxycyclohexyl)amino)methyl)-2-phenyl-2,3-dihydrobenzofuran-4-yl)-4-(difluoromethoxy)-3-fluorobenzamide], with 8.15. For `COC(=O)[C@H]1CC[C@@H](NC[C@@]2(c3ccccc3)Cc3c(ccc(Cl)c3-c3c(C(N)=O)ccc(F)c3F)O2)CC1` (relative stereo) [Example 137a, Methyl (cis)-4-((((2S,4S)-4-(6-carbamoyl-2,3-difluorophenyl)-5-chloro-2-phenyl-2,3-dihydrobenzofuran-2-yl)methyl)amino)cyclohexane-1-carboxylate], the negative-log IC50 (pIC50) is 8.30.
